Assay results reported in US10206937B2, “Boronic acid derivatives and therapeutic uses thereof” (Qpex Biopharma, Inc., priority 2014, dated 2019).

How the values were obtained:
[1] = system: EC1064 (NDM-1, CMY-6, CTX-M-15); assay: Carbapenem potentiation against clinical isolate (MIC); type: cell-based, Escherichia coli
[2] = system: KP1081 (NDM-1, TEM-1, SHV-11, CMY-6, CTX-M-15); assay: as above; type: cell-based
AB1144 (NDM-1) = assay: as above; type: cell-based, Acinetobacter baumannii; details: AB1144
EA1019 (SHV-5, VIM-1) = assay: as above; type: cell-based, Enterobacter aerogenes; details: EA1019
KP1014 (VIM-1) = assay: as above; type: cell-based, Klebsiella pneumoniae
KP1059 (VIM-1, SHV-11) = assay: Biapenem potentiation against clinical isolate (MIC); type: cell-based; details: Klebsiella pneumoniae, biapenem alone
Source text: The results are present in Table 9.

KP1054 (VIM-1, SHV-11) = assay: Carbapenem potentiation against clinical isolate (MIC); type: cell-based, Klebsiella pneumoniae
[3] = system: KP1064 (KPC-2, SHV-11, TEM-1); assay: as above; type: cell-based, Klebsiella pneumoniae
[4] = system: KP1074 (KPC-3, SHV-11, TEM); assay: as above; type: cell-based, Klebsiella pneumoniae
[5] = system: KP1084 (KPC-3, SHV-11, TEM-1); assay: as above; type: cell-based, Klebsiella pneumoniae
[6] = system: KP1004 (KPC-2, TEM-1, SHV-11); assay: as above; type: cell-based, Klebsiella pneumoniae
[7] = system: KP1087 (KPC-2, CTX-M-15, SHV-11, TEM-1); assay: as above; type: cell-based
[8] = system: KP1086 (TEM, SHV, CTX-M-15, OXA-48); assay: as above; type: cell-based, Klebsiella pneumoniae
[9] = Klebsiella pneumoniae, biapenem alone

## C[C@@H](O)[C@H]1C(=O)N2C(C(=O)[O-])=C(SC3Cn4cnc[n+]4C3)[C@H](C)[C@H]12 (stereo partly shown) [Biapenem]
[1]; Escherichia coli, biapenem alone
  MIC: > 10 µg/mL
[1]; antibiotic alone
  Carbapenem MIC Alone: Z (MIC of greater than 10 μg/mL)
[2]; [9]
  MIC: > 10 µg/mL
[2]; antibiotic alone
  Carbapenem MIC Alone: Z (MIC of greater than 10 μg/mL)
AB1144 (NDM-1); antibiotic alone
  Carbapenem MIC Alone: Y (MIC of 1 μg/mL to 10 μg/mL)
AB1144 (NDM-1); Acinetobacter baumannii, biapenem alone
  MIC: > 10 µg/mL
EA1019 (SHV-5, VIM-1); antibiotic alone
  Carbapenem MIC Alone: Z (MIC of greater than 10 μg/mL)
EA1019 (SHV-5, VIM-1); Klebsiella aerogenes, biapenem alone
  MIC: > 10 µg/mL
KP1014 (VIM-1); [9]
  MIC: > 10 µg/mL
KP1014 (VIM-1); antibiotic alone
  Carbapenem MIC Alone: Z (MIC of greater than 10 μg/mL)
KP1059 (VIM-1, SHV-11)
  MIC: > 10 µg/mL
KP1054 (VIM-1, SHV-11); [9]
  MIC: > 10 µg/mL
KP1054 (VIM-1, SHV-11); antibiotic alone
  Carbapenem MIC Alone: Z (MIC of greater than 10 μg/mL)
[3]; [9]
  MIC: > 10 µg/mL
[3]; antibiotic alone
  Carbapenem MIC Alone: Z (MIC of greater than 10 μg/mL)
[4]; [9]
  MIC: > 10 µg/mL
[4]; antibiotic alone
  Carbapenem MIC Alone: Z (MIC of greater than 10 μg/mL)
[5]; [9]
  MIC: > 10 µg/mL
[5]; antibiotic alone
  Carbapenem MIC Alone: Z (MIC of greater than 10 μg/mL)
[6]; [9]
  MIC: > 10 µg/mL
[6]; antibiotic alone
  Carbapenem MIC Alone: Y (MIC of 1 μg/mL to 10 μg/mL)
[7]; [9]
  MIC: > 10 µg/mL
[7]; antibiotic alone
  Carbapenem MIC Alone: Z (MIC of greater than 10 μg/mL)
[8]; [9]
  MIC: > 10 µg/mL
[8]; antibiotic alone
  Carbapenem MIC Alone: Z (MIC of greater than 10 μg/mL)
